Reference: patent US11612587B2, “Composition for preventing or treating hair loss” (KYUNGPOOK NATIONAL UNIVERSITY INDUSTRY-ACADEMIC COOPERATION …, priority 2018, dated 2023)

How the values were obtained:
[1] = system: human hair follicles; assay: recovery of human hair follicle growth inhibition by 15d-PGJ2 in human hair follicle tissue culture; type: cell-based; settings: for hair follicle growth (hair follicle length when 15d-PGJ2 was treated alone as 100%): 6 days culture, FIG. 5
Experimental: (§1) Human hair tissue was provided from the hair transplant center of Kyungpook National University and used for the experiment by separating the hair follicles from the scalp tissue with the consent of the hair transplant patient (IRB project number: KNUH2014-02-023). After treatment of each compound, human hair tissue was prepared by incubating a 37° C. CO2 incubator for 6 days using Williams E media (Sigma, USA) containing 2 mM L-glutamine, 100 U/ml streptomycin, and 10 ng/ml hydrocortisone and the length of growth was measured using a microscope.
(§2) The data from the above experiments were expressed as mean±SEM. For statistical processing, the mean deviation of each group was measured using Student's t-test, and it was considered significant at p<0.005 and p<0.05.

[2] = system: human hair follicles; assay: toxicity / growth of cultured human hair follicle tissue treated with the compound alone; type: cell-based; settings: 6 days culture
Experimental: as §1, §2

## O=C(O)CN1C(=O)C2(CC(=O)N(Cc3cc(Cl)ccc3F)C2=O)c2cc(Cl)ccc21 (stereo not shown) [Compound 1]
[1]; 0.1 nM compound simultaneously with 15d-PGJ2 (10 μM)
  hair follicle growth (hair follicle length when 15d-PGJ2 was treated alone as 100%): 108%
[1]; 1 nM compound simultaneously with 15d-PGJ2 (10 μM)
  hair follicle growth (hair follicle length when 15d-PGJ2 was treated alone as 100%): 194%
[1]; 10 nM compound simultaneously with 15d-PGJ2 (10 μM)
  hair follicle growth (hair follicle length when 15d-PGJ2 was treated alone as 100%): 234%
[2]; compound alone at 0.1-10 nM, FIG. 4
  toxicity in human hair follicle tissue (hair follicle growth vs untreated group): no significant difference

## CC(C)(C)OC(=O)CN1C(=O)C2(CCNC2=O)c2cc(Cl)ccc21 (stereo not shown) [Compound 2]
[1]; Compound 2 0.5 μM, 1 μM simultaneously with 15d-PGJ2 (10 μM), vs 15d-PGJ2 only, FIG. 7
  hair follicle growth inhibited by 15d-PGJ2: significantly increased
[2]; compound alone at 0.1 to 10 μM, FIG. 6
  toxicity in human hair follicle tissue (hair follicle growth vs untreated group): no significant difference

## CCCCC/C=C/C=C1/C(=O)C=C[C@@H]1C/C=C\CCCC(=O)O [Compound 15d-PGJ2, 15-deoxy-Δ^12,14-prostaglandin J2, reference compound]
[2]; 15d-PGJ2 alone at 10 μM, FIG. 1
  decrease of hair follicle growth: ⅓
